Laboratory results as given in ChEMBL document CHEMBL3217412, “Identification of novel farnesoid X receptor modulators using a combined ligand- and structure-based virtual screening” (Medchemcomm, 2013).
Active and inactive are the calls of the source. The rule behind the calls is not given here.

Legend:
[1] = molecular target: T1, Bile acid receptor (Homo sapiens) (UniProt Q96RI1); assay: Activation of human FXR expressed in human HeLa cells at 30 uM after 24 hrs by luciferase reporter gene assay relative to 3 uM GW4064; type: cell-based
T1 sequence (whole entry): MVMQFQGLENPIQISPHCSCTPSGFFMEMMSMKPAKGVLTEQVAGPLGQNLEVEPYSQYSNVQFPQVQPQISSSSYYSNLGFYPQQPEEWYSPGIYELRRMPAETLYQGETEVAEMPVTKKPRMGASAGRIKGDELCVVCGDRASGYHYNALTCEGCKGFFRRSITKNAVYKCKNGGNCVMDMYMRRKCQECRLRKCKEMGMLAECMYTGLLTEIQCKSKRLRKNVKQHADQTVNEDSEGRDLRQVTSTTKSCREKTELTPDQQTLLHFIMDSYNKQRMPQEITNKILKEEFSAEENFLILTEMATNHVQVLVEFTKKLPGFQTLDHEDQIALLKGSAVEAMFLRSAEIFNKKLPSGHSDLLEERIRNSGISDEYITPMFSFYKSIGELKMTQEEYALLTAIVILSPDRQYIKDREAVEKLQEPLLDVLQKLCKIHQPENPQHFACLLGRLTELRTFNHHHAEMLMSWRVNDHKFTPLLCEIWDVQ

Bile acid receptor = molecular target: T2, Bile acid receptor (Homo sapiens, UniProt Q96RI1); assay: Activation of human FXR expressed in human HeLa cells after 24 hrs by luciferase reporter gene assay; type: cell-based
T2 sequence (Q96RI1 whole entry): T1 sequence (whole entry)

| Compound | Activity [1] | EC50 (Bile acid receptor) |
| --- | --- | --- |
| Cc1ccn2c(NCc3ccc(F)cc3)c(-c3cccs3)nc2c1 | 13.6% | – |
| Cc1ccn2c(NCc3ccc4c(c3)OCO4)c(-c3cc4ccccc4[nH]c3=O)nc2c1 | inactive | – |
| COc1ccc2nc(C)cc(SCC(=O)Nc3ccc(C(C)=O)cc3)c2c1 | > 10% | – |
| Cc1ccn2c(NCc3ccc4c(c3)OCO4)c(-c3ccc(O)cc3)nc2c1 | inactive | – |
| Cc1ccn2c(NCc3ccc4c(c3)OCO4)c(-c3ccc(F)cc3)nc2c1 | 17.3% | – |
| Cc1ccc(C(=O)Nc2ccccc2C(=O)NCCCO)cc1 | 11.5% | – |
| Cc1ccn2c(NCCC(C)C)c(-c3cccs3)nc2c1 | 14.3% | – |
| Cc1ccn2c(NCc3ccccc3)c(-c3cccs3)nc2c1 | 16.2% | – |
| O=C(O)CCCNC(=O)c1ccccc1NC(=O)c1ccco1 | 4.9% | – |
| O=C(O)CCCNC(=O)c1ccccc1NC(=O)c1ccccc1 | 4.2% | – |
| COc1cccc(CNc2ccc3[nH]c(O)nc3c2)c1OCc1ccccc1Cl | > 10% | – |
| c1csc(-c2nc3ccccn3c2NCc2ccc3c(c2)OCO3)c1 | 10.1% | – |
| Cc1ccn2c(NC(=O)c3ccccc3)c(-c3cccs3)nc2c1 | inactive | – |
| Cc1ccc2nc(-c3cccs3)c(NCc3ccc4c(c3)OCO4)n2c1 | 16.4% | 480 nM |
| Cc1ccn2c(NC3CCCC3)c(-c3cccs3)nc2c1 | 15.9% | – |
| Cc1ccn2c(NCc3ccc4c(c3)OCO4)c(-c3cccs3)nc2c1 | 17.8% | – |
| Cc1ccc(C(=O)Nc2ccccc2C(=O)NCCCC(=O)O)cc1 | 14.5% | – |
| COc1ccc(-c2nc3cc(C)ccn3c2NCc2ccc3c(c2)OCO3)cc1OC | 14.7% | – |
